# Literature values in patent US20220071932A1, “Compositions and Methods Against Stress-Induced Affective Disorders and Their Associated Symptoms” (The Trustees of Columbia University in the City of New York, priority 2019, published 2022).
# Test system: depressive symptoms in patients
# Conditions: patients diagnosed with MDD; cited from earlier work
smiles,measurement,value
CC12CC3CC(C)(C1)CC(N)(C3)C2 [memantine],reduction of depressive symptoms,does not reduce depressive symptoms
